Values quoted from earlier work as cited in patent EP0343306A1, “Liquid pharmaceutical preparation based on theophylline with a retarding effect, and process for producing it” (CARULLA VEKAR, S.A., priority 1988, dated 1989).

Conditions: in vivo

In the case of Cn1c(=O)c2[nH]cnc2n(C)c1=O [theophylline], the “plasmatic levels associated with a significant incidence of side effects” value is given as “above 20 mcg/ml”.
